Literature values as cited in US20060110359A1, “Cellular delivery of natriuretic peptides” (priority 2002, published 2006).

How the values were obtained:
brain edema [1] = settings: for effect on brain edema: experimental brain hemorrhage in rats
brain edema [2] = settings: into rat lateral ventricle or intravenously

SMILES	brain water and sodium (brain edema [1]; given after a 4-hour delay, 24 hours after hemorrhage, rats)	brain water and sodium accumulation (brain edema [2])	effect on brain edema (brain edema [1])
CC[C@H](C)[C@@H]1NC(=O)[C@H](CCCNC(=N)N)NC(=O)[C@H](CC(=O)O)NC(=O)[C@H](CCSC)NC(=O)[C@H](CCCNC(=N)N)NC(=O)CNC(=O)CNC(=O)[C@H](Cc2ccccc2)NC(=O)[C@@H](NC(=O)[C@H](CO)NC(=O)[C@H](CO)NC(=O)[C@H](CCCNC(=N)N)NC(=O)[C@H](CCCNC(=N)N)NC(=O)[C@H](CC(C)C)NC(=O)[C@@H](N)CO)CSSC[C@@H](C(=O)N[C@@H](CC(N)=O)C(=O)N[C@@H](CO)C(=O)N[C@@H](Cc2ccccc2)C(=O)N[C@@H](CCCNC(=N)N)C(=O)N[C@@H](Cc2ccc(O)cc2)C(=O)O)NC(=O)CNC(=O)[C@H](CC(C)C)NC(=O)CNC(=O)[C@H](CO)NC(=O)[C@H](CCC(N)=O)NC(=O)[C@H](C)NC(=O)CNC1=O [ANP, atrial natriuretic peptide]	significantly reduced	inhibit brain water and sodium accumulation	–
Nc1nc2c(nc(Br)n2[C@@H]2O[C@@H]3COP(=O)(O)O[C@H]3[C@H]2O)c(=O)[nH]1 [8-bromo-cGMP]	–	–	Neither mannitol nor 8-bromo-cGMP affected brain edema
OC[C@@H](O)[C@@H](O)[C@H](O)[C@H](O)CO [mannitol]	–	–	Neither mannitol nor 8-bromo-cGMP affected brain edema
